Data on 1 compound can be found in patent US7211596B2, “Stable high-concentration injection containing pyrazolone derivative” (Mitsubishi Pharma Corporation, priority 2001, dated 2007).

Values after ≈ are worked out from the molar mass of the structure shown.

The data set is described as follows: Test 1: solubility of Edaravone in various aqueous solubilizer solutions (saturated solution at 4° C., HPLC). The format is physicochemical. Particulars: aqueous with cosolvent or surfactant or cyclodextrin, thermodynamic from solid. On the procedure: Water for injection (5 mL) was added to 5 mL of each of ethanol, propylene glycol, polyethylene glycol 400 and N,N-dimethylacetamide widely used as a solubilizer for an intravenous injection, followed by stirring. Edaravone was added to the resulting aqueous solubilizer solution and the mixture was stirred in a thermostat maintained at 4° C. by using a stirrer at a fixed but not bubbling speed all day and night. After completion of the stirring, a portion of Edaravone which had remained undissolved was checked visually to confirm that each solution thus obtained was a saturated aqueous solution of Edaravone. Then, the solution was quickly filtered through a membrane filter (pore size: 0.45 μm) kept at 4° C. and the amount of Edaravone contained in the filtrate was measured by HPLC method as explained below. Further, the maximum amount of each of the solubilizers used a day as an injection for intravenous administration was also shown (Iyakuhin-tenkabutu-jiten 2000 (published by Yakuji-nippou-sha), p. 127, 264 and 229 to 230. The maximum amount of ethanol was calculated based on the amount used for NIMOTOP IV (registered trademark, Bayer Co.)) and its solubilizing effect on Edaravone was calculated as a numerical term.
Measuring Method by HPLC and its Conditions:
By liquid chromatography (LC) using ethyl paraaminobenzoate as an internal standard substance, a peak area ratio of Edaravone to the internal standard substance was found and based on it, the concentration of Edaravone was determined. • Detector: Ultraviolet spectrophotometer (wavelength measured: 240 nm) • Column: A stainless tube having inside diameter of about 4 mm and length of about 15 cm and filled with octadecylsilylated silica-gel 5 μm was used at a fixed temperature near 50° C. • Mobile phase: A (3:1) mixed solution of 10 mM aqueous acetic acid solution and methanol, adjusted to pH 5.5 with aqueous ammonia • Flow rate: adjusted so that the retention time of Edaravone would be about 8 minutes.

For orientation: solubility means the concentration that dissolves in the medium under given conditions. Low readings indicate little dissolved substance, high ones much dissolved substance. For `CC1=NN(c2ccccc2)C(=O)C1` [Edaravone, 3-Methyl-l-phenyl-2-pyrazolin-5-one], the solubility is, setting by setting: (50 v/v % N,N-dimethylacetamide in water, in 50 v/v % N,N-Dimethylacetamide, 4° C.) 20 mg/mL (≈ 115 mM); (50 v/v % ethanol in water, in 50 v/v % Ethanol, 4° C.) 10 mg/mL (≈ 57.4 mM); (50 v/v % polyethylene glycol 400 in water, in 50 v/v % Polyethylene glycol 400, 4° C.) 13 mg/mL (≈ 74.6 mM); (50 v/v % propylene glycol in water, in 50 v/v % Propylene glycol, 4° C.) 6 mg/mL (≈ 34.4 mM).
